The text below walks through data of patent publication US20260216294A1, “BETA 2-ADRENERGIC RECEPTOR AGONISTS FOR TREATMENT OR PREVENTION OF MUSCLE WASTING” (ATROGI AB, priority 2023, published 2026).

Experiment [1] concerns L6-myotubes. The experiment can be described thus: Glucose uptake in differentiated L6-myotubes (Biological Example 2). The settings on record: for Emax at 10 µM: read-out: Biological example 2 (GU). Type of experiment: cell-based. Summed up:
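Differentiated L6 myotubes were serum-starved overnight in 0.5% fatty-acid-free BSA and then stimulated with compound or isoprenaline at 1×10^−5 M final. After 1 h 40 min cells were washed and re-dosed in glucose-free medium. Twenty minutes later, uptake of 50 nM ^3H-2-deoxyglucose over 10 min was measured by scintillation counting of NaOH lysates.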

In experiment [2] the test system is L6-myotubes. Description: Measurement of intracellular cAMP levels in differentiated L6-myotubes (Biological Example 3). Format: cell-based. The settings on record: for Emax at 10 µM: 0.25 h. The essentials:
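Serum-starved differentiated L6 myotubes stimulated 15 min with test compound at 1×10^−5 M final (isoprenaline as reference) in HBSS with 1% BSA, 5 mM HEPES, 1 mM IBMX, pH 7.4. Cells EtOH-extracted, lysed, and intracellular cAMP measured by AlphaScreen.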

Where [3] appears, read: glucose uptake, compound at 10 μM relative to isoproterenol at 10 μM.
Where [4] appears, read: intracellular cAMP, compound at 10 μM relative to isoproterenol at 10 μM.
Where [5] appears, read: glucose uptake in differentiated L6-myotubes, compound at 10 μM, activity relative to isoproterenol at 10 μM.
Setting [6] is: intracellular cAMP in differentiated L6-myotubes, compound at 10 μM, activity relative to isoproterenol at 10 μM.

In the case of `CC(C)(C)NC[C@H](O)c1cccc(F)c1` [Compound 54, (R)-2-(tert-butylamino)-1-(m-fluorophenyl)-1-ethanol], the results for the Emax at 10 µM in experiment [1] (setting [3]) and in experiment [2] (setting [4]) were > 75% and < 25%, respectively.

Consider `CC1(C)CC[C@H]([C@H](O)c2cccc(N)c2F)N1` [Compound 227, (R)-[(R)-5,5-dimethyl-2-pyrrolidinyl](3-amino-2-fluorophenyl)methanol], for which the Emax at 10 µM in experiment [1] (setting [5]) is > 75%; in experiment [2] (setting [6]) it was < 25%.

Consider `CCC[C@H]1CCC[C@H]([C@@H](O)c2cc(F)cc(F)c2)N1` [Compound 66], for which the Emax at 10 µM in experiment [1] (setting [3]) is 25 to 50%; in experiment [2] (setting [4]), < 25%.

Turning to `CO[C@H]1CC[C@H](C[C@]2(C)CC[C@H]([C@H](O)c3cccc(F)c3)N2)CC1` [Compound 364, (R)-[(2R,5S)-5-methyl-5-{[(1r,4S)-4-methoxycyclohexyl]methyl}-2-pyrrolidinyl] (m-fluorophenyl)methanol], the Emax at 10 µM in experiment [1] (setting [5]) is > 75%; in experiment [2] (setting [6]) it was 50 to 75%.

In the case of `CCCCNCC(O)c1cc(F)cc(F)c1` (centres unmarked) [Compound 55, 2-(butylamino)-1-(3,5-difluorophenyl)-1-ethanol], the values for the Emax at 10 µM in experiment [1] (setting [3]) and in experiment [2] (setting [4]) were 50 to 75% and < 25%, respectively.

In the case of `CC(C)(C)NC[C@H](O)c1ccc(F)cc1O` [Compound 80, (R)-2-(tert-butylamino)-1-(4-fluoro-2-hydroxyphenyl)-1-ethanol], the figures for the Emax at 10 µM in experiment [1] (setting [3]) and in experiment [2] (setting [4]) were 50 to 75% and < 25%, respectively.

With `CCC[C@H]1CCC[C@@H]([C@H](O)c2cccc(O)c2)N1` [Compound 122], the Emax at 10 µM in experiment [1] (setting [3]) was 50 to 75%; in experiment [2] (setting [4]), < 25%.

For the compound `CC1(C)CC[C@H]([C@@H](O)c2cccc(O)c2)N1` [Compound 111, m-{(S)-[(R)-5,5-dimethyl-2-pyrrolidinyl] hydroxymethyl}phenol], the Emax at 10 µM in experiment [1] (setting [3]) is 50 to 75%; in experiment [2] (setting [4]) it was < 25%.

`CC1(C)CCC[C@@H]([C@H](O)c2ccccc2F)N1` [Compound 193]: the Emax at 10 µM in experiment [1] (setting [3]) is > 75%; in experiment [2] (setting [4]), 25 to 50%.

On to `CS(=O)(=O)N(Cc1ccccc1)[C@H]1CC[C@@H](C[C@@H]2CC[C@H]([C@@H](O)c3cccc(F)c3)N2)CC1` [Compound 509, (S)-[(2R,5S)-5-({(1s,4R)-4-[(benzyl)-N-mesylamino]cyclohexyl}methyl)-2-pyrrolidinyl](m-fluorophenyl)methanol], for which the Emax at 10 µM in experiment [1] (setting [5]) and in experiment [2] (setting [6]) was < 25% in each case.

In the case of `CC1(C)C[C@@H]([C@H](O)c2cncc(F)c2)N1` [Compound 216], the Emax at 10 µM in experiment [1] (setting [5]) was 25 to 50%; in experiment [2] (setting [6]), < 25%.

Take `COc1ccc(CCC23CCC([C@@H](O)c4cccc(F)c4)(CC2)N3)cc1` [Compound 539, (S)-(m-fluorophenyl){4-[2-(p-methoxyphenyl)ethyl]-7-azabicyclo[[2.2.1]]hept-1-yl}methanol]: the Emax at 10 µM in experiment [1] (setting [5]) and in experiment [2] (setting [6]) was < 25% each time.

Take `CO[C@H]1CC[C@H](C[C@H]2CC[C@H]([C@@H](O)c3ccccc3F)N2)CC1` [Compound 338, (S)-[(2R,5R)-5-{[(1r,4R)-4-methoxycyclohexyl]methyl}-2-pyrrolidinyl](o-fluorophenyl)methanol]: the Emax at 10 µM in experiment [1] (setting [5]) is 50 to 75%; in experiment [2] (setting [6]) it was < 25%.

Turning to `CCC[C@H]1CCCC[C@@H]([C@H](O)c2cncc(F)c2)N1` [Compound 234, (R)-[(2S,7S)-7-propyl-2-azepanyl](5-fluoro-3-pyridyl)methanol], the values for the Emax at 10 µM in experiment [1] (setting [5]) and in experiment [2] (setting [6]) were > 75% and < 25%, respectively.

For `CCC[C@H]1CCCC[C@@H]([C@@H](O)c2cncc(F)c2)N1` [Compound 235, (S)-[(2S,7S)-7-propyl-2-azepanyl](5-fluoro-3-pyridyl)methanol], the Emax at 10 µM in experiment [1] (setting [5]) and in experiment [2] (setting [6]) was < 25% in each case.

Take `CO[C@H]1CC[C@H](C(C)(C)NC[C@H](O)c2cccc(F)c2)CC1` [Compound 239, (R)-1-(m-fluorophenyl)-2-{1-methyl-1-[(1r,4R)-4-methoxycyclohexyl]ethylamino}-1-ethanol]: the figures for the Emax at 10 µM in experiment [1] (setting [5]) and in experiment [2] (setting [6]) were > 75% and < 25%, respectively.

For `CCC[C@@H](C)NC[C@H](O)c1ccc(O)cc1` [Compound 27, (R)-2-[(R)-1-methylbutylamino]-1-(p-hydroxyphenyl)-1-ethanol], the Emax at 10 µM in experiment [1] (setting [3]) was > 75%; in experiment [2] (setting [4]) it was 25 to 50%.

`CCC[C@@H]1CC[C@H]([C@@H](O)c2cccc(F)c2)N1` [Compound 126]: the Emax at 10 µM in experiment [1] (setting [3]) is 25 to 50%; in experiment [2] (setting [4]), < 25%.

Consider `CO[C@H]1CC[C@H](C[C@H]2CC[C@H]([C@H](O)c3cccc(F)c3)N2)CC1` [Compound 335], for which the Emax at 10 µM in experiment [1] (setting [5]) is > 75%; in experiment [2] (setting [6]), < 25%.

Turning to `CCC[C@H]1CC[C@H]([C@H](O)c2cccc(F)c2)N1` [Compound 124, (R)-[(2R,5S)-5-propyl-2-pyrrolidinyl](m-fluorophenyl)methanol], the Emax at 10 µM is 50 to 75% in experiment [1] (setting [3]) and < 25% in experiment [2] (setting [4]).

Turning to `CCC(C)NCC(O)c1ccc(O)cc1` (centres unmarked) [Compound 5, 2-(sec-butylamino)-1-(p-hydroxyphenyl)-1-ethanol], the Emax at 10 µM in experiment [1] (setting [3]) was 50 to 75%; in experiment [2] (setting [4]), < 25%.

Consider `CC(=O)N[C@H]1CC[C@@H](CC(C)(C)NC[C@H](O)c2cccc(C#N)n2)CC1` [Compound 421], for which the Emax at 10 µM in experiment [1] (setting [5]) was > 75%; in experiment [2] (setting [6]), < 25%.

As for `CC(C)(C[C@H]1CC[C@H](NS(C)(=O)=O)CC1)NC[C@H](O)c1cncc(F)c1` [Compound 360, (R)-2-{1,1-dimethyl-2-[(1r,4R)-4-(mesylamino)cyclohexyl]ethylamino}-1-(5-fluoro-3-pyridyl)-1-ethanol], the Emax at 10 µM in experiment [1] (setting [5]) is > 75%; in experiment [2] (setting [6]), < 25%.

Take `CC1(C)CCC[C@H]([C@@H](O)c2cccc(O)c2)N1` [Compound 103]: the Emax at 10 µM was 25 to 50% in experiment [1] (setting [3]) and < 25% in experiment [2] (setting [4]).

Take `CC(C)(C[C@H]1CC[C@H](NS(C)(=O)=O)CC1)NC[C@H](O)c1cccc(C#N)n1` [Compound 426, 6-[(S)-2-{1,1-dimethyl-2-[(1r,4S)-4-(mesylamino)cyclohexyl]ethylamino}-1-hydroxyethyl]-2-pyridinecarbonitrile]: the figures for the Emax at 10 µM in experiment [1] (setting [5]) and in experiment [2] (setting [6]) were > 75% and < 25%, respectively.

For `O[C@@H](CNC[C@H]1CC[C@H](OCc2ccccc2)CC1)c1cncc(F)c1` [Compound 273, (R)-1-(5-fluoro-3-pyridyl)-2-({[(1r,4R)-4-(benzyloxy)cyclohexyl]methyl}amino)-1-ethanol], the Emax at 10 µM in experiment [1] (setting [5]) was 25 to 50%; in experiment [2] (setting [6]), < 25%.

`CC(C)(C)NC[C@H](O)c1ccc(F)c(N)c1F` [Compound 149, (R)-1-(3-amino-2,4-difluorophenyl)-2-(tert-butylamino)-1-ethanol]: the Emax at 10 µM in experiment [1] (setting [3]) was > 75%; in experiment [2] (setting [4]) it was 25 to 50%.

Turning to `CC1(C)C[C@H]([C@@H](O)c2cncc(F)c2)N1` [Compound 217], the Emax at 10 µM in experiment [1] (setting [5]) is 25 to 50%; in experiment [2] (setting [6]), < 25%.

For the compound `O[C@H](c1cccc(F)c1)C12CCC(CCc3ccc(OC(F)(F)F)cc3)(CC1)N2` [Compound 546, (R)-(m-fluorophenyl){4-[2-(p-trifluoromethoxyphenyl)ethyl]-7-azabicyclo[[2.2.1]]hept-1-yl}methanol], the Emax at 10 µM in experiment [1] (setting [5]) and in experiment [2] (setting [6]) was < 25% each time.

With `CS(=O)(=O)N(Cc1ccccc1)[C@H]1CC[C@@H](C[C@@H]2CC[C@H]([C@H](O)c3cccc(F)c3)N2)CC1` [Compound 508, (R)-[(2R,5S)-5-({(1s,4R)-4-[(benzyl)-N-mesylamino]cyclohexyl}methyl)-2-pyrrolidinyl](m-fluorophenyl)methanol], the Emax at 10 µM in experiment [1] (setting [5]) and in experiment [2] (setting [6]) was < 25% each time.

On to `CC(C)(C[C@H]1CC[C@@H](NC(=O)OC(C)(C)C)CC1)NC[C@H](O)c1cncc(F)c1` [Compound 469, (1S,4s)-4-{2-[(R)-2-(5-fluoro-3-pyridyl)-2-hydroxyethylamino]-2-methylpropyl}cyclohexy-2-methyl-2-propanecarbamate], for which the “Biological example 2 (GU)” value in experiment [1] (setting [5]) is given as “+++ (If a compound at 10 μM shows activity of more than 75% of that of isoproterenol at 10 μM, the activity is denoted with +++)”. In addition, the “Biological example 3 (CAMP)” value in experiment [2] (setting [6]) is on record as “− (if it less than 25% it is denoted with −)”.

Turning to `COC(=O)[C@H]1CC[C@H](CCC(C)(C)NC[C@H](O)c2cccc(F)c2)CC1` [Compound 350, methyl (1R,4r)-4-{3-[(R)-2-(m-fluorophenyl)-2-hydroxyethylamino]-3-methylbutyl} cyclohexanecarboxylate], the Emax at 10 µM in experiment [1] (setting [5]) was > 75%; in experiment [2] (setting [6]), < 25%.

Turning to `CCCC(C)NCC(O)c1cc(Cl)c(N)c(C(F)(F)F)c1` (centres unmarked) [Compound 33, 1-[4-amino-3-chloro-5-(trifluoromethyl)phenyl] -2-(1-methylbutylamino)-1-ethanol], the values for the Emax at 10 µM in experiment [1] (setting [3]) and in experiment [2] (setting [4]) were 50 to 75% and > 75%, respectively.

Take `CCC[C@H]1CCC[C@H]([C@H](O)c2ccc(F)c(F)c2)N1` [Compound 67, (R)-[(2R,6S)-6-propyl-2-piperidyl](3,4-difluorophenyl)methanol]: the Emax at 10 µM is 25 to 50% in experiment [1] (setting [3]) and < 25% in experiment [2] (setting [4]).
